`Nc1cc(CO)ccc1Cl`: the melting point – broadly, the temperature of the solid-liquid transition – lay within 97 to 99 °C.
As for `O=C(O)c1cn2ccccc2n1`, the figure is 242 to 244 °C; as for `NC1(CO)Cc2ccccc2C1`, 107 to 109 °C.
In turn, `O=C(O)CCc1nc2cccc(Cl)c2[nH]1` registered a melting point of 209 to 211 °C.
Turning to `Cc1nn(-c2ccc(Cl)cc2)cc1C(=O)O`, the melting point is 224 to 226 °C.
As for `Cc1cc(C(=O)O)c(C)n1-c1ccc(F)cc1`, the figure is 232 to 234 °C; as for `ClCc1nc(-c2ccccn2)no1`, 102 to 104 °C; as for `N#CCc1cccc2cccnc12`, 84 to 86 °C.
`CCOC(=O)c1c(Cl)nc2ccccc2c1C` yielded a melting point of 109 to 111 °C.
`CCCCc1ccc(NC2=NCCCS2)cc1` gave a melting point of 70 to 72 °C.
As for `CNC(=O)CNC(=S)NN`, the figure is 156 to 158 °C; as for `CC(=O)Nc1cc(F)ccc1-c1csc(N)n1`, 127 to 129 °C.
With `COc1ccc2c(=O)c(-c3ccccc3)c(C)oc2c1`, the melting point is 136 to 138 °C.
In turn, `O=S(=O)(Cl)c1c(Cl)cccc1C(F)(F)F` came in with a melting point of 36 to 38 °C.
`CCOC(=O)c1noc(N)c1-c1ccccc1` showed a melting point of 105 to 117 °C.
`Cc1sc2ncnc(NN)c2c1C`: the melting point was 208 to 210 °C.
`Cc1ccc(O)c(-c2nc3ccccc3[nH]2)c1` displayed a melting point of 259 to 261 °C.
For `NC(=O)CCN(C(=O)CCl)c1ccccc1`, the melting point is 143 to 145 °C.
Take `CC(C)COc1cccc(C(=O)O)c1`: the melting point was 85 to 89 °C.
For `CC(Oc1cccc(C#N)c1)C(=O)O` (configuration not stated) the value was 110 to 112 °C.
`CC(NC(=O)CC1CCCC1)C(=O)O` (configuration not stated) registered a melting point of 139 to 141 °C.
On to `Cn1c(=O)n(Cc2ccc(Br)cc2)c(=O)c2ccc(C(F)(F)F)nc21`, for which the melting point lay in the range of 103 to 105 °C.
`CCC1(CC)NC(=O)NC1=O` showed a melting point of 180 to 182 °C.
For `N#Cc1cccc(NC(=O)c2ccccc2F)c1` the value was 132 to 134 °C; for `Nc1ccc(S(=O)(=O)NCc2ccc(F)cc2)cc1`, 136 to 138 °C.
`COC(=O)c1sc2ccccc2c1S(=O)(=O)Cl` had a melting point of 98 to 100 °C.
Consider `O=C(O)c1ccc(Cn2cccc2)cc1`, for which the melting point was 161 to 163 °C.
In turn, `CCN(CC)c1ccc([N+](=O)[O-])cc1C(=O)O` gave a melting point of 184 to 186 °C.
In turn, `O=C(O)c1ccc(-n2cccc2)nc1` yielded a melting point of 259 to 261 °C.
Consider `Cn1cnnc1Sc1ccc(N)cc1`, for which the melting point fell in the range of 153 to 157 °C.
`N#Cc1ccc(O)c(N)c1` returned a melting point of 149 to 151 °C.
`O=C(CCl)Nc1ccc(Cl)c(Cl)c1` showed a melting point of 103 to 105 °C.
The compound `O=C1CCc2c(Cl)cc(Br)cc21` had a melting point of 124 to 126 °C.
For `CNC(C)c1ccc(-n2cncn2)cc1` (configuration not stated) the value was 44 to 48 °C; for `CN(C)S(=O)(=O)c1cccc(C(=O)NN)c1`, 149 to 151 °C.
With `OC(c1c(F)cncc1Br)C1CCCCC1` (configuration not stated), the melting point lay within 76 to 78 °C.
`CC(C)Oc1ccc(-c2csc(N)n2)cc1`: the melting point is 191 to 193 °C.
Regarding `O=C(O)c1ccnc(Br)c1[N+](=O)[O-]`, the melting point was in the range of 220 to 222 °C.
In the case of `NCc1ccc2c(c1)CCO2`, the melting point was in the range of 38 to 40 °C.
In the case of `CC(=O)Nc1ccc(S(=O)(=O)NC(C)C(=O)O)cc1` (configuration not stated), the melting point was in the range of 178 to 180 °C.
Compound `O=C1CC(C(=O)O)CC(=O)N1` displayed a melting point of 204 to 206 °C.
As for `CC(Cl)C(=O)NCc1ccccc1Cl` (configuration not stated), the figure is 88 to 90 °C.
With `CCOC(=O)C(=O)c1cc(Br)ccc1OC`, the melting point fell in the range of 69 to 71 °C.
In turn, `Clc1nc(C2CC2)nc2scc(-c3ccccc3)c12` showed a melting point of 77 to 79 °C.
Regarding `O=c1ccc2cc(S(=O)(=O)Cl)ccc2[nH]1`, the melting point was 278 to 280 °C.
`O=C(O)c1cc(Cl)cc(Cl)c1I` returned a melting point of 173 to 175 °C.
For `O=C(O)c1sccc1SC(F)F` the value was 117 to 119 °C; for `O=C(CCl)NOCc1ccccc1`, 92 to 94 °C.
Take `COc1ccc2[nH]c3c(c2c1)CC1(CC3)OCCO1`: the melting point is 149 to 151 °C.
As for `Nc1nc(-c2ccccc2)c(-c2ccccc2)s1`, the figure is 181 to 183 °C.
`CSCCC(NS(=O)(=O)c1ccccc1)C(=O)O` (configuration not stated) gave a melting point of 103 to 105 °C.
Regarding `O=c1c2sc(-c3ccccc3)cc2nc(S)n1Cc1ccccc1`, the melting point lay in the range of 313 to 315 °C.
For `COc1ccc2cc(C(=O)O)[nH]c2c1` the value was 190 to 192 °C; for `O=S(=O)(Cl)Cc1ccc(Cl)nc1`, 59 to 61 °C.
`Nc1cc(Br)ccc1S(N)(=O)=O` registered a melting point of 142 to 144 °C.
For the compound `O=c1ccn(C2CC2)c(S)n1`, the melting point lay in the range of 238 to 240 °C.
The compound `FC(F)(F)c1nnc2ccc(Cl)nn12` came in with a melting point of 69 to 71 °C.
As for `Cc1nc2cc(F)ccc2cc1C(=O)O`, the melting point was 262 to 264 °C.
`CCOc1ccc(C=C(C(=O)O)c2cccs2)cc1` yielded a melting point of 133 to 135 °C.
With `COc1ccc(S(=O)(=O)Cl)cc1[N+](=O)[O-]`, the melting point was 58 to 60 °C.
`COc1cc(C=O)ccc1OCc1csc(C)n1` came in with a melting point of 86 to 88 °C.
For the compound `Cc1ccc2ncnc(Cl)c2c1`, the melting point was in the range of 105 to 107 °C.
Turning to `O=C(O)CCNS(=O)(=O)c1ccc(Cl)c([N+](=O)[O-])c1`, the melting point was 113 to 115 °C.
With `NC1CCN(c2ccc(Cl)cc2)C1=O` (configuration not stated), the melting point was 80 to 82 °C.
Take `Oc1cnnc(S)n1`: the melting point is 244 to 246 °C.
For `CN(C)S(N)(=O)=O` the value was 94 to 96 °C; for `C#CCNC(=O)Nc1ccc(C)cc1`, 174 to 176 °C; for `O=C(CCl)Nc1nncs1`, 233 to 235 °C.
For `NCC(O)COCc1ccccc1` (configuration not stated), the melting point fell in the range of 74 to 76 °C.
For `CNC(=O)c1cnc(C)[nH]c1=O` the value was 319 to 321 °C; for `O=C(O)c1cccnc1N1CCCCC1`, 94 to 96 °C.
For `COc1cc(S(=O)(=O)Cl)ccc1[N+](=O)[O-]`, the melting point was 75 to 77 °C.
Regarding `COc1ccccc1NC(=O)CC1Nc2ccccc2NC1=O` (configuration not stated), the melting point was 172 to 174 °C.
As to `COc1ccc(-c2nn(Cc3ccccc3)cc2C(=O)O)cc1OC`, the melting point is 110 to 114 °C.
As for `O=C(O)CCCNC(=O)c1ccc(F)cc1`, the figure is 93 to 95 °C; as for `Clc1cc2c(cc1Br)OCCN2`, 124 to 126 °C.
For the compound `O=C(O)C1CCN(C(=O)c2ccccc2)CC1`, the melting point lay within 144 to 146 °C.
`COc1ccccc1NC(=O)CC#N` showed a melting point of 87 to 90 °C.
Regarding `Nc1ccc(Br)c2ccccc12`, the melting point was 102 to 104 °C.
The compound `COC(=O)CN(C)c1ccc(Br)cn1` had a melting point of 92 to 94 °C.
Turning to `CSc1ccc(OCCCl)cc1`, the melting point lay in the range of 63 to 65 °C.
As for `COc1ccc(S(=O)(=O)NC(C(=O)O)C(C)C)cc1` (configuration not stated), the figure is 172 to 174 °C.
Turning to `C=Cc1nc(-c2cccc(Cl)c2)no1`, the melting point fell in the range of 51 to 53 °C.
`O=C(OCc1ccccc1)N1CCc2n[nH]c(=O)cc2C1`: the melting point lay within 175 to 177 °C.
`Nc1ccc(-c2n[nH]c(=O)[nH]2)cc1` showed a melting point of 333 to 335 °C.
For `ONCc1ccc(F)cc1`, the melting point was in the range of 59 to 61 °C.
For `Nc1ccc(-c2cn3cccnc3n2)cc1`, the melting point was 251 to 253 °C.

Source of the values: a melting point compilation (Tetko et al.).
